Measurements reported in patent US9834773B2, “Methods and means for metabolic engineering and improved product formation by micro-organisms” (Universiteit Leiden, priority 2006, dated 2017).
Entries after “also recorded” stand apart in the source; their conditions may differ.

Assays:
[1] = test system: S. coelicolor M145 and nagE1, nagE2 mutants; experiment: Development on R2YE agar plates with or without N-acetylglucosamine; type: cell-based, Streptomyces coelicolor; details: N-acetylglucosamine 1% w/v
Experimental: FIG. 18. N-acetylglucosamine is transported by NagE2 (SCO2907). Mutants deleted for the transport genes nagE1/(SCO2906), nagE2 (SCO2907), or both, were plated on R2YE agar plates with or without N-acetylglucosamine (1% w/v). Other strains on the agar plates are: S.coelicolor M145 (parent of all mutants), the dasR mutant BAP29 and the pts mutants ptsH (BAP1), crr (BAP2), and ptsI (BAP3). For phenotypes of the pts mutants see also FIG. 3A). […] This proves that indeed nagE2 is the transporter of N-caetylglucosamine and is essential for import of the inducer molecule for the DasR control system.
Two possible transporters for N-acetylglucosamine were identified on the S. coelicolor genome, namely the adjacent genes nagE1 (SCO2906) and nagE2 (SCO2907). Mutants were created for both genes by replacing the entire gene by the apramycin resistance cassette aacC4. A double mutant was also produced (BAP6). The method used to do this was by using pWHM3, as described previously (Nothaft et al., 2003). Mutants deleted for the transport genes nagE1 (BAP4), nagE2 (BAP5), or both (BAP6), were plated on R2YE agar plates with or without N-acetylglucosamine (1% w/v). Other strains on the agar plates are: S.coelicolor M145 (parent of all mutants), the dasR mutant BAP29 and the pts mutants ptsH (BAP1), crr (BAP2), and ptsI (BAP3). For phenotypes of the pts mutants see also FIG. 3A). […] This proves that indeed nagE2 is the transporter of N-acetylglucosamine and is essential for import of the inducer molecule for the DasR control system.

[2] = test system: several streptomycetes (Bacillus subtilis as the indicator strain); experiment: Global antibiotic activity assay: streptomycetes on MM mannitol with or without GlcNAc, Bacillus subtilis overlay; type: cell-based, Streptomyces species; details: MM mannitol 0.5% with vs without GlcNAc 1%; for growth inhibition zones indicative of antibiotic production: B. subtilis indicator
Experimental: FIG. 23. Conservation of the GlcNAc-dependent antibiotic-inducing pathway amongst streptomycetes. Streptomycetes were grown on MM agar plates with 0.5% mannitol alone (left panel), or with added 1% GlcNAc (right panel), and an overlay was applied containing B. subtilis, allowing visualization of growth inhibition caused by antibiotic production. The tested streptomycetes were Streptomyces lividans 1326 (1326), Streptomyces hygroscopicus (hygro), Streptomyces collinus (colli), Streptomyces roseosporus (roseo), Streptomyces cinnamonensis (cinna), Streptomyces venezuelae (venez), Streptomyces clavuligerus (clavu), Streptomyces rimosus (rimos), Streptomyces griseus (grise), Streptomyces acrimycini (acrim), Streptomyces limosus (limos), and Streptomyces avermitilis (averm). See Materials and Methods section for exact nomenclature. The GlcNAc-triggering effect on antibiotic activity was most obvious for S. hygroscopicus, S. collinus, S. venezuelae, S. clavuligerus, S. rimosus, and S. griseus.
Samples (1 μl) of diluted spore suspensions were spotted on minimal medium plates containing 0.5% mannitol with or without 1% GlcNAc and incubated three days at 28° C. For the bioassay, we inoculated 10 ml of molten soft nutrient agar (SNA) with 500 μl of a Bacillus subtilis overnight culture (0D600˜1), and poured the mixture into square 12-cm-side Petri dishes. Plates were kept 2 h at 4° C. to solidify SNA and to allow diffusion of antibiotics produced, then incubated overnight at 30° C.
Is the GlcNAc-mediated control of antibiotic production a more widespread phenomenon in streptomycetes? To assess this, we evaluated the effect of GlcNAc on total antimicrobial activity (bactericidal and bacteristatic) of several streptomycetes, using Bacillus subtilis as the indicator strain. The tested strains were spotted on minimal medium containing mannitol (0.5%) with or without GlcNAc (1%). Excitingly, growth inhibition zones indicative of antibiotic production were much larger for Streptomyces clavuligerus (a producer of cephamycin), Streptomyces collinus (produces kirromycin), Streptomyces griseus (streptomycin producer), Streptomyces hygroscopicus (produces hygromycin), Streptomyces rimosus (produces oxytetracycline), and Streptomyces venezuelae (chloramphenicol, methymycin) (FIG. 23).

DasR = DasR (Streptomyces coelicolor, UniProt Q9K492); experiment: EMSA binding interference experiment: ability of compounds to interfere with binding of DasR to the nagB and crr promoters; details: for effect on formation of the complex of DasR with the nagB promoter (EMSA): 10 nM fluorescent probe, 3 μM purified DasR, 500-fold excess of non-specific DNA, 50, 100, 150, and 200 mM compound
DasR, sequence (Q9K492 whole entry): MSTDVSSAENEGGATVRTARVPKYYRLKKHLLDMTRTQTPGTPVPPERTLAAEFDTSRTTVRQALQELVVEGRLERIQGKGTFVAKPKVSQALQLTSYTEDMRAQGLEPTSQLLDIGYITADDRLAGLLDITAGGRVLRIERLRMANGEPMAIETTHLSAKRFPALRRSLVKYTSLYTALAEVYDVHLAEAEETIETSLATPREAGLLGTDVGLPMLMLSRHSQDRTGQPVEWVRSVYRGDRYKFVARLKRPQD
Experimental: FIG. 12. […] EMSAs were performed with 10 nM fluorescent probe, 3 μM purified DasR, and 500-fold excess of non-specific DNA.
EMSAs were performed with fluorescent probes (10 nM) with an ALF express sequencer (Filee et al., 2001). Purified DasR (3 μM) and 1000-fold excess of non-specific DNA were used in the reaction mixture. Predicted cis-acting elements were taken from the promoter regions of actII-ORF4 (SCO5085; 5′-[…]-3′ (SEQ ID NO:530)), and redZ (SCO5881; 5′-[…]-3′ (SEQ ID NO:531)). Known cis-acting elements upstream of crr (SCO1390; […]-3′ (SEQ ID NO:532)), and crp (SCO3571; 5′-[…]-3′ (SEQ ID NO:533)) were used as positive and negative controls, respectively. The 16 nt dre sites are underlined.
A pivotal question is what is the effector molecule that modulates DasR? As shown in here, many of the targets for DasR relate to the generation (chitinolytic system), transport (PTS^GlcNAc), and metabolism (glycolysis via fructose 6-P) of N-acetylglucosamine. We therefore looked for the inducer among the intermediate molecules that gravitate around aminosugar metabolism. A binding interference experiment was set up where the ability of compounds to interfere with binding of dasR to the nagB and crr promoters was tested. […] The finding that glucosamine-6-P serves as an effector of DasR is explained by its central position at the metabolic crossroads between (GlcNAc)n extracellular degradation, N-acetylglucosamine transport and intracellular metabolism, lipid and nitrogen metabolism, glycolysis, and peptidoglycan synthesis (FIG. 13).

For `CC(=O)N[C@H]1C(O)O[C@H](CO)[C@@H](O)[C@@H]1O` (stereo partly shown) [N-acetylglucosamine], the effect on development ([1]; nagE1/nagE2 double mutant (BAP6), R2YE agar) was “no effect on development”, the effect on development ([1]; nagE1 mutant (BAP4), R2YE agar) was “arrested in the vegetative state” and the effect on development ([1]; nagE2 mutant (BAP5), R2YE agar) was “no effect on development”. The effect on development ([1]; parental strain S. coelicolor M145, R2YE agar) was “arrested in the vegetative state”, the “antibiotic activity against B. subtilis” value ([2]; Streptomyces acrimycini) was “did not seem to affect” and the “antibiotic activity against B. subtilis” value ([2]; Streptomyces avermitilis) was “did not seem to affect”. The “antibiotic activity against B. subtilis” value ([2]; Streptomyces cinnamonensis) was “did not seem to affect”, the “growth inhibition zones indicative of antibiotic production” value (shortened to “growth inhibition zones indicative”) ([2]; Streptomyces clavuligerus) was “most obvious; also recorded: much larger” and the “growth inhibition zones indicative” value ([2]; Streptomyces collinus) was “most obvious; also recorded: much larger”. The “growth inhibition zones indicative” value ([2]; Streptomyces griseus) was “most obvious; also recorded: much larger”, the “growth inhibition zones indicative” value ([2]; Streptomyces hygroscopicus) was “most obvious; also recorded: much larger” and the “antibiotic activity against B. subtilis” value ([2]; Streptomyces limosus) was “did not seem to affect”. For the same molecule, the “antibiotic activity against B. subtilis” value ([2]; Streptomyces lividans) was “did not seem to affect”, the “growth inhibition zones indicative” value ([2]; Streptomyces rimosus) was “most obvious; also recorded: much larger” and the “antibiotic activity against B. subtilis” value ([2]; Streptomyces roseosporus) was “repressing effect”. For the same molecule, the “growth inhibition zones indicative” value ([2]; Streptomyces venezuelae) was “most obvious; also recorded: much larger”, the “effect on formation of the complex of DasR with the nagB promoter (EMSA)” value (DasR) was “it was the only of the compounds tested that prevented the formation of a complex” and the “effect on formation of the complex of DasR with the nagB promoter (EMSA)” value (DasR; listed as GlcNAc) was “no effect”. The “effect on formation of the complex of DasR with the crr promoter region (EMSA)” value (DasR; crr promoter, data not shown) was “it was the only of the compounds tested that prevented the formation of a complex”.
